Assay [1] addresses T1, P450cam (Pseudomonas putida, UniProt P00183, R187A).
T1 sequence (P00183 2-415 R187A): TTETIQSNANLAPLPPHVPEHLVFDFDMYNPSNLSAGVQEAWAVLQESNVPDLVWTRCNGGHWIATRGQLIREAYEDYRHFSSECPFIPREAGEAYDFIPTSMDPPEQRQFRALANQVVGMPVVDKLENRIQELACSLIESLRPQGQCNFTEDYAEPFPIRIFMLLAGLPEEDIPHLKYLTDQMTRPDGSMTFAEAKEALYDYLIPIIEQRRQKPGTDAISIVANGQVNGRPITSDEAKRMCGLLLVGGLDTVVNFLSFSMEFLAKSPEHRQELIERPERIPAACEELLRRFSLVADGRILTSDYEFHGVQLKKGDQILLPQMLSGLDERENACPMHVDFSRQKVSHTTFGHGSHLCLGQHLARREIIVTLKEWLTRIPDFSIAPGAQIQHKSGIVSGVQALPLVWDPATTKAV
The assay is described as follows: isothermal titration calorimetry. Type of assay: binding. In general terms: In ITC the heat of successive injections is recorded.

Assay [2] addresses T2, R186A mutant of cytochrome P450cam (Pseudomonas putida, UniProt P00183 2-415, R186A).
T2 sequence: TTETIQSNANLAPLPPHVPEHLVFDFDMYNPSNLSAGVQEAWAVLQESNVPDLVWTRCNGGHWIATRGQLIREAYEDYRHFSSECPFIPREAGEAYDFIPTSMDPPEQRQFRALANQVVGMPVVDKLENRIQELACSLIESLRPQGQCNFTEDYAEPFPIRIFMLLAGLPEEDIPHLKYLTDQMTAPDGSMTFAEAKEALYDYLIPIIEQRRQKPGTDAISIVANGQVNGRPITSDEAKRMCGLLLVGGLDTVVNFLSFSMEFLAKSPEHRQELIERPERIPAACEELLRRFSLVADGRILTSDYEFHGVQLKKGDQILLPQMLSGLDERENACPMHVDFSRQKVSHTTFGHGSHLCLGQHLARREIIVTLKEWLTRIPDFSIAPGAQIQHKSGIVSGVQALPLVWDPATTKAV
The assay is described as follows: ITC.

Broadly, the Kd is the equilibrium constant for the complex coming apart. Read a high Kd as lower affinity.

Turning to `CC1(C)[C@@H]2CC[C@@]1(C)C(=O)C2` [D-camphor], the Kd in assay [1] is 32.2 ± 4 µM.

B1: putidaredoxin (natural protein, Pseudomonas putida)
chain: MSKVVYVSHDGTRRELDVADGVSLMQAAVSNGIYDIVGDCGGSASCATCHVYVNEAFTDKVPAANEREIGMLECVTAELKPNSRLCCQIIMTPELDGIVVDVPDRQW
For B1, binding in assay [2] was put at a Kd of 22.1 µM.

For the origin of these results see article PMC5640156 (Journal of the American Chemical Society, 2017).
